According to US9896479B2, “Functionalized naphthalene fluorophores” (Kay M. Brummond, priority 2012, dated 2018):

How the values were obtained:
Format in all cases: physicochemical
[1] = Absorption spectra (absorption maxima) of dyes in organic solvents
Description: (§1) All commercially available compounds were purchased from Aldrich Chemical Co., GFS Chemicals, Strem Chemicals, Acros Organics, Alfa Aesar, and Advanced Chemtech and used as received, except for p-toluenesulfonyl hydrazide, which was recrystallized from methanol. Amines were purchased from Aldrich Chemical Co. as purified by redistillation and used as received. Tetrahydrofuran (THF), diethyl ether (Et2O), and dichloromethane (CH2Cl2) were purified by passing through alumina using the Sol-Tek ST-002 solvent purification system. Acetonitrile (MeCN) and toluene were freshly distilled from CaH2 prior to use. Benzene was freshly distilled from sodium/benzophenone prior to use Anhydrous N,N-dimethylformamide (DMF), 1,2-dichloroethane (DCE), and 1,4-dioxane were purchased and used as received from Aldrich Chemical Co. Purification of the compounds by flash column chromatography was performed using silica gel (32-63 μm particle size, 60 Å pore size) purchased from Silicycle, or by using a Biotage Horizon flash purification system with either Biotage SNAP KP-SIL silica cartridges, or Teledyne ISCO RediSep Rf normal phase disposable flash columns (40-60 micron). TLC analyses were performed on EMD Chemicals Silica Gel 60 F254 glass plates (250 μm thickness). ^1H NMR and ^13C NMR spectra were recorded on Bruker Avance 300 MHz, 500 MHz, or 600 MHz spectrometers. Spectra were referenced to residual chloroform (7.27 ppm, ^1H, 77.0 ppm, ^13C) or 1,2-dichlorobenzene (6.93 ppm, ^1H, 127.19 ppm, ^13C). Chemical shifts are reported in ppm, multiplicities are indicated by s (singlet), d (doublet), t (triplet), q (quartet), p (pentet), and m (multiplet). Coupling constants, J, are reported in hertz (Hz). All NMR spectra were obtained at room temperature unless otherwise specified. IR spectra were obtained using a Nicolet Avatar E.S.P. 360 FT-IR. EI mass spectroscopy was performed on a Waters Micromass GCT high resolution mass spectrometer. ES mass spectroscopy was performed on a Waters Q-TOF Ultima API, Micromass UK Limited high resolution mass spectrometer. GC mass spectrometry was performed on a Shimadzu GCMS-17A/QP5050A spectrometer. All microwave-mediated reactions were carried out using a Biotage Initiator™ Exp microwave synthesizer. The microwave parameters were set to variable power, constant temperature, with the fixed hold time set to on. The microwave reactions were carried out in 0.2-0.5 mL, 0.5-2 mL, 2-5 mL, or 10-20 mL Biotage microwave vials. […] Absorption and fluorescence spectra were recorded on Lambda 9 spectrophotometer (Perkin Elmer) and FluoroMax-3 spectrofluorometer (Jobin Yvon, Horiba), respectively. Fluorescence quantum yields were determined by taking Prodan in DMSO (quantum yield, QY=91%) as a reference. The quantum yield values were corrected for the solvent refractive index. For spectroscopic measurements, 10^−5 M solutions of dyes in 10 mm quartz-cuvettes were used (excitation wavelength was 334 nm; slits open to 2 nm).

[2] = Fluorescence emission spectra (emission maxima, Stokes and bathochromic shifts); conditions: for Bathochromic shift: across Toluene, CH2Cl2, DMSO (Table 3)
Description: as §1

[3] = Fluorescence quantum yield vs Prodan in DMSO as reference; conditions: for QY (fluorescence quantum yield vs Prodan in DMSO (91%)): excitation 334 nm, 10^-5 M
Description: as §1

1-(6-(Dimethylamino)-2,3-dihydro-1H-cyclopenta[b]naphthalen-4-yl)ethanone [Compound 10]
absorption maximum ([1]; in DCM): 324 nm | Stokes shift ([2]; in DCM): 207 nm | emission maximum ([2]; in dichloromethane (DCM)): 531 nm

1-(8-(dimethylamino)-2,3-dihydro-1H-cyclopenta[b]naphthalen-4-yl)ethanone [Compound 12]
absorption and emission maxima compared with fluorophore 102a ([2]; in DCM): comparable to those observed for fluorophore 102a

CC(=O)c1c2c(cc3c(N(C)C)cccc13)CC(CO)(CO)C2 [7a]
emission maximum ([2]; in dichloromethane (DCM)): 567 nm

CN(C)c1cccc2c(C(=O)C(C)(C)C)c3c(cc12)CC(CO)(CO)C3 [7b]
λabs (absorption maxima) ([1]; CH2Cl2 (Table 3)): 320 nm | λabs (absorption maxima) ([1]; DMSO (Table 3)): 320 nm | λabs (absorption maxima) ([1]; Toluene (Table 3)): 318 nm | SS (Stokes shift) ([2]; CH2Cl2 (Table 3)): 210 nm | λem (emission maxima) ([2]; CH2Cl2 (Table 3)): 530 nm | SS (Stokes shift) ([2]; DMSO (Table 3)): 241 nm | λem (emission maxima) ([2]; DMSO (Table 3)): 561 nm | SS (Stokes shift) ([2]; Toluene (Table 3)): 175 nm | λem (emission maxima) ([2]; Toluene (Table 3)): 493 nm | Bathochromic shift [2]: 68 nm

CN(C)c1ccc2cc3c(c(-c4ccc(CO)cc4)c2c1)C(=O)CC3 [15b]
λabs (absorption maxima) ([1]; CH2Cl2 (Table 3)): 427 nm | λabs (absorption maxima) ([1]; DMSO (Table 3)): 427 nm | λabs (absorption maxima) ([1]; Toluene (Table 3)): 424 nm | SS (Stokes shift) ([2]; CH2Cl2 (Table 3)): 110 nm | λem (emission maxima) ([2]; CH2Cl2 (Table 3)): 537 nm | SS (Stokes shift) ([2]; DMSO (Table 3)): 147 nm | λem (emission maxima) ([2]; DMSO (Table 3)): 574 nm | SS (Stokes shift) ([2]; Toluene (Table 3)): 80 nm | λem (emission maxima) ([2]; Toluene (Table 3)): 504 nm | Bathochromic shift [2]: 70 nm

CC(=O)c1c2c(cc3ccccc13)CCC2 [Compound 6a, 1-(2,3-Dihydro-1H-cyclopenta[b]naphthalen-4-yl)ethanone]
emission maximum ([2]; in dichloromethane (DCM)): 566 nm

CC(=O)c1c2c(cc3ccc(Cl)cc13)CCC2 [Compound 6b, 1-(6-Chloro-2,3-dihydro-1H-cyclopenta[b]naphthalen-4-yl)ethanone]
emission maximum ([2]; in dichloromethane (DCM)): 527 nm

CC(=O)c1c2c(cc3c(Cl)cccc13)CCC2 [Compound 6c, 1-(8-Chloro-2,3-dihydro-1H-cyclopenta[b]naphthalen-4-yl)ethanone]
emission maximum ([2]; in dichloromethane (DCM)): 564 nm

CC(=O)c1c2c(cc3cc(Cl)ccc13)CCC2 [Compound 6d, 1-(7-chloro-2,3-dihydro-1H-cyclopenta[b]naphthalen-4-yl)ethanone]
emission maximum ([2]; in dichloromethane (DCM)): 581 nm

CC(=O)c1c2c(cc3ccc(N(C)C)cc13)CCC2 [Compound 10, 1-(6-(Dimethylamino)-2,3-dihydro-1H-cyclopenta[b]naphthalen-4-yl)ethanone]
QY (fluorescence quantum yield vs Prodan in DMSO (91%)) ([3]; 1,4-Dioxane): 46% | QY (fluorescence quantum yield vs Prodan in DMSO (91%)) ([3]; Acetonitrile): 99% | QY (fluorescence quantum yield vs Prodan in DMSO (91%)) ([3]; CH2Cl2): 99% | QY (fluorescence quantum yield vs Prodan in DMSO (91%)) ([3]; CHCl3): 77% | QY (fluorescence quantum yield vs Prodan in DMSO (91%)) ([3]; Cyclohexane): 45% | QY (fluorescence quantum yield vs Prodan in DMSO (91%)) ([3]; DMSO): 85% | QY (fluorescence quantum yield vs Prodan in DMSO (91%)) ([3]; EtOH): 5% | QY (fluorescence quantum yield vs Prodan in DMSO (91%)) ([3]; THF): 75% | QY (fluorescence quantum yield vs Prodan in DMSO (91%)) ([3]; Toluene): 62% | quantum yield ([3]; in dichloroethane): 99% | λabs (maximum absorption) ([1]; 1,4-Dioxane): 376 nm | λabs (maximum absorption) ([1]; Acetonitrile): 375 nm | λabs (maximum absorption) ([1]; CH2Cl2): 377 nm | λabs (maximum absorption) ([1]; CHCl3): 377 nm | λabs (maximum absorption) ([1]; Cyclohexane): 373 nm | λabs (maximum absorption) ([1]; DMSO): 377 nm | λabs (maximum absorption) ([1]; EtOH): 377 nm | λabs (maximum absorption) ([1]; THF): 377 nm | λabs (maximum absorption) ([1]; Toluene): 376 nm | absorption maxima ([1]; dichloroethane): 377 nm | absorption maximum ([1]; in methylene chloride): ~375 nm | λem (maximum emission) ([2]; 1,4-Dioxane): 495 nm | λem (maximum emission) ([2]; Acetonitrile): 529 nm | λem (maximum emission) ([2]; CH2Cl2): 510 nm | λem (maximum emission) ([2]; CHCl3): 516 nm | λem (maximum emission) ([2]; Cyclohexane): 466 nm | λem (maximum emission) ([2]; DMSO): 536 nm | λem (maximum emission) ([2]; EtOH): 578 nm | λem (maximum emission) ([2]; THF): 497 nm | λem (maximum emission) ([2]; Toluene): 490 nm | emission maximum ([2]; in methylene chloride): ~510 nm

CC(=O)c1c2c(cc3cc(N(C)C)ccc13)CCC2 [Compound 11, 1-(7-(dimethylamino)-2,3-dihydro-1H-cyclopenta[b]naphthalen-4-yl)ethanone]
QY (fluorescence quantum yield vs Prodan in DMSO (91%)) ([3]; Acetonitrile): 18% | QY (fluorescence quantum yield vs Prodan in DMSO (91%)) ([3]; CH2Cl2): 82% | QY (fluorescence quantum yield vs Prodan in DMSO (91%)) ([3]; CHCl3): 41% | QY (fluorescence quantum yield vs Prodan in DMSO (91%)) ([3]; Cyclohexane): 8% | QY (fluorescence quantum yield vs Prodan in DMSO (91%)) ([3]; DMSO): 37% | QY (fluorescence quantum yield vs Prodan in DMSO (91%)) ([3]; EtOH): 3% | QY (fluorescence quantum yield vs Prodan in DMSO (91%)) ([3]; THF): 34% | QY (fluorescence quantum yield vs Prodan in DMSO (91%)) ([3]; Toluene): 25% | λabs (maximum absorption) ([1]; Acetonitrile): 370 nm | λabs (maximum absorption) ([1]; CH2Cl2): 372 nm | λabs (maximum absorption) ([1]; CHCl3): 373 nm | λabs (maximum absorption) ([1]; Cyclohexane): 363 nm | λabs (maximum absorption) ([1]; DMSO): 374 nm | λabs (maximum absorption) ([1]; EtOH): 374 nm | λabs (maximum absorption) ([1]; THF): 370 nm | λabs (maximum absorption) ([1]; Toluene): 368 nm | absorption maximum ([1]; in methylene chloride): ~375 nm | λem (maximum emission) ([2]; Acetonitrile): 545 nm | λem (maximum emission) ([2]; CH2Cl2): 509 nm | λem (maximum emission) ([2]; CHCl3): 514 nm | λem (maximum emission) ([2]; Cyclohexane): 445 nm | λem (maximum emission) ([2]; DMSO): 558 nm | λem (maximum emission) ([2]; EtOH): 605 nm | λem (maximum emission) ([2]; THF): 505 nm | λem (maximum emission) ([2]; Toluene): 481 nm | emission maximum ([2]; in methylene chloride): ~510 nm

CC(=O)c1c2c(cc3ccc(N4CCCC4)cc13)CCC2 [Compound 13, 1-(6-(pyrrolidin-1-yl)-2,3-dihydro-1H-cyclopenta[b]naphthalen-4-yl)ethanone]
λabs (absorption maxima) ([1]; CH2Cl2 (Table 3)): 325 nm | λabs (absorption maxima) ([1]; DMSO (Table 3)): 327 nm | λabs (absorption maxima) ([1]; Toluene (Table 3)): 320 nm | SS (Stokes shift) ([2]; CH2Cl2 (Table 3)): 243 nm | λem (emission maxima) ([2]; CH2Cl2 (Table 3)): 568 nm | SS (Stokes shift) ([2]; DMSO (Table 3)): 271 nm | λem (emission maxima) ([2]; DMSO (Table 3)): 598 nm | SS (Stokes shift) ([2]; Toluene (Table 3)): 206 nm | λem (emission maxima) ([2]; Toluene (Table 3)): 526 nm | Bathochromic shift [2]: 72 nm | absorption and emission maxima compared with fluorophore 102a ([2]; in DCM): comparable to those observed for fluorophore 102a
